System: H4IIE cells
Test: Cellular bioassay of hepatic glucose production (gluconeogenesis) induced by sodium pyruvate and lactate (SLP)
Format: cell-based
Conditions: for glucose production relative to SLP condition (100%): 6 h incubation
Procedure: A cellular bioassay was established according to a method described by Okamoto et al. (Establishment and characterization of a novel method for evaluating gluconeogenesis using hepatic cell lines, H4IIE and HepG2, Archives of Biochemistry and Biophysics, Volume 491, Issues 1-2, November 2009, Pages 46-52; Takashi Okamoto, Naohide Kanemoto, Takashi Ban, Toshiki Sudo, Keisuke Nagano, Ichiro Niki.) (FIG. 1). Briefly, H4IIE cells pre-cultured at high density were seeded into a 12-well plate at a density of 5.714×10^5 cells/cm^2 and cultured for 24 h in EMEM supplemented with 10% FCS. […] The assay was started by switching the medium for KHH Buffer in the presence of gluconeogenesis-inducing substrates (1 mM sodium pyruvate and 10 mM lactate). Compounds were added at different concentrations and tested in duplicate. 10 mM of metformin was included as a positive control for inhibition of gluconeogenesis. The conditioned medium was collected after 6 h of incubation (stored at −80° C.). The cells remaining in the wells are washed once with PBS and then stored dry at −20° C.). The medium is used to assay glucose content using a fluorometric glucose assay kit. Frozen cells' proteins are first extracted and then quantified, to normalize the glucose results. Components were tested in at least two independent experiments performed at different cell passages. The selected compounds (Histidine and Ferulic acid) were tested individually to assess their inhibitory effect on hepatic glucose production (Table 1) using a range of concentrations determined from previous internal knowledge and literature. Additional experiments on individual compounds were conducted: the amino acid arginine and leucine to test the specificity of histidine effects against other amino acids. In addition, interactions and synergies between compounds were further explored using combined formulations, for which detailed information is provided in Table 1. For data analysis described herein, results are expressed as relative glucose produced in every treatment compared to the glucose produced using SLP treatment. […] Independent experiments were performed, using different cells passages in each condition. […] Sodium Pyruvate (1 mM) and Sodium Lactate (10 mM) was used to induce gluconeogenesis in H4IIE cells.

In the case of CN(C)C(=N)N=C(N)N [metformin, reference compound], the “glucose production relative to SLP condition (100%)” value (10 mM, positive control) is reported as 9.71%±4.2.
For N[C@@H](Cc1c[nH]cn1)C(=O)O [histidine], the “inhibiting effect of doubling the dose” value (dose doubled from 0.5 mM to 1 mM) was 52%, the “inhibiting effect of doubling the dose” value (dose doubled from 1 mM to 2 mM) was 25% and the “glucose production relative to SLP condition (100%)” value (single compound at 0.2 mM) was 93.7%±10.85. The “glucose production relative to SLP condition (100%)” value (single compound at 0.5 mM) was 87.00%±17.2, the “glucose production relative to SLP condition (100%)” value (single compound at 1 mM) was 52.67%±4.16 and the “glucose production relative to SLP condition (100%)” value (single compound at 2 mM) was 39.19%±7.44. For the same compound, the “glucose production relative to SLP condition (100%)” value (single compound at 20 mM) was 8.39%±2.49.
In the case of CC(C)C[C@H](N)C(=O)O [Leucine, leucine, reference compound], the “glucose production relative to SLP condition (100%)” value (single compound at 0.2 mM) is reported as 84.69%±1.05, the “glucose production relative to SLP condition (100%)” value (single compound at 2 mM) is reported as 75.37%±0.36 and the “glucose production relative to SLP condition (100%)” value (single compound at 20 mM) is reported as 83.76%±7.30.
With N=C(N)NCCC[C@H](N)C(=O)O [Arginine, arginine, reference compound] the “glucose production relative to SLP condition (100%)” value (single compound at 0.2 mM) was 81.44%±2.72, the “glucose production relative to SLP condition (100%)” value (single compound at 2 mM) was 65.01%±11.52 and the “glucose production relative to SLP condition (100%)” value (single compound at 20 mM) was 45.40%±3.57.
COc1cc(/C=C/C(=O)O)ccc1O [Ferulic acid, ferulic acid] was tested, and the “inhibition on doubling the dose” value (dose doubled from 0.5 μM to 1 μM) was 30%, the “inhibiting effect of doubling the dose” value (dose doubled from 1 μM to 2 μM) was 40% and the “inhibition on doubling the dose” value (dose doubled from 2 μM to 4 μM) was 32%. The “glucose production relative to SLP condition (100%)” value (single compound at 0.5 μM) was 85.67%±3.81, the “glucose production relative to SLP condition (100%)” value (single compound at 0.8 μM) was 81.51%±11.70 and the “glucose production relative to SLP condition (100%)” value (single compound at 1 μM) was 61.38%±15.82. For the same compound, the “glucose production relative to SLP condition (100%)” value (single compound at 2 μM) was 36.57%±6.02 and the “glucose production relative to SLP condition (100%)” value (single compound at 4 μM) was 25.08%±5.03.

Reference: patent US11896581B2, “Compositions and methods for providing health benefits in an animal” (Société des Produits Nestlé S.A., priority 2020, dated 2024)
